# Values quoted from earlier work, collected in patent US9974839B2, “Self-assembled toroidal-spiral particles and manufacture and uses thereof” (THE BOARD OF TRUSTEES OF THE UNIVERSITY OF ILLINOIS, priority 2009, dated 2018).
# Test system: mitogenic activity
# Details: in vitro
substance,measurement,value
"mono-PEGylated epidermal growth factor (EGF) with PEG 3400 at Lys28 and Lys48: literature EGF mono-PEGylated with PEG 3400 at Lys28 and Lys48 (ref. 28) (NSDSECPLSHDGYCLHDGVCMYIEALDKYACNCVVGYIGERCQYRDLKWWELR; Epidermal growth factor PEG 3400; UniProt P01133 971-1023, looked up)",mitogenic activity relative to EGF isomer PEGylated at the amino terminus,significantly less active
